Experimental data reported in patent US4198415A, “Prolactin inhibiting octahydro pyrazolo[3,4-g]quinolines” (Eli Lilly and Company, priority 1979, dated 1980).
Structures can show the parent of a compound that is named as a salt.

Columns and labels:
[1] = tested on: 6-hydroxydopamine-lesioned rats; experiment: turning behavior in 6-hydroxydopamine-lesioned rats (rat turning test, Parkinsonism); assay type: in vivo; details: intraperitoneal; for Average Number of Turns/rat: first 15 minutes after end of latency period
Experimental: In this test, nigroneostriatal-lesioned rats are employed, as prepared by the procedure of Ungerstedt and Arbuthnott, Brain Res, 24, 485 (1970). A compound having dopamine agonist activity causes the rats to turn in circles contralateral to the side of the lesion. After a latency period, which varies from compound to compound, the number of turns is counted over a 15-minute period.
The compounds were dissolved in water and the aqueous solution injected into the rat by the intraperitoneal route at dose levels of 1 mg/kg. and 100 mcg/kg.

[2] = tested on: prolactin; experiment: inhibition of prolactin secretion in reserpine-treated male rats (serum prolactin); assay type: in vivo, rat (Sprague-Dawley); details: intraperitoneal, one hour after treatment, reserpine-pretreated rats
Experimental: Adult male rats of the Sprague-Dawley strain weighing about 200 g. were housed in an air-conditioned room with controlled lighting (lights on 6 a.m.-8 p.m.) and fed lab chow and water ad libitum. Each rat received an intraperitoneal injection of 2.0 mg. of reserpine in aqueous suspension 18 hours before administration of the test drug. The purpose of the reserpine was to keep prolactin levels uniformly elevated. The compounds under test were dissolved in 10 percent ethanol, and were injected intraperitoneally at doses of 50 mcg/kg and 0.5 and 5 mg/kg. Each compound was administered at each dose level to a group of 10 rats, and a control group of 10 intact males received an equivalent amount of 10 percent ethanol. One hour after treatment, all rats were killed by decapitation, and 150 μl aliquots of serum were assayed for prolactin.

[3] = intraperitoneal lethality (LD50); assay type: in vivo
Experimental: In using the compounds of this invention to inhibit prolactin secretion or to treat Parkinson's syndrome or for other pharmacologic action, a compound according to Formula Ia or Ib above in which R is C1 -C3 alkyl or allyl and R^1 is H or CH2 X where X is OCH3, SCH3, SO2 CH3, CN or CONH2, or a salt thereof with a pharmaceutically-acceptable acid, is administered to a subject suffering from Parkinsonism or in need of having his or her prolactin level reduced in an amount effective to treat Parkinsonism or to reduce prolactin. Oral administration is preferred. If parenteral administration is used, the injection is preferably by the subcutaneous route using an appropriate pharmaceutical formulation. […] In particular, with intravenous or intramuscular administration, a water soluble pharmaceutically-acceptable salt is employed. For oral administration, the compound either as the free base or in the form of a salt thereof, can also be mixed with standard pharmaceutical excipients and loaded into empty telescoping gelatin capsules or pressed into tablets. The oral dosage range is from about 0.01 to 10 mg./kg. of mammalian weight and the parenteral dose range from about 0.0025 to 2.5 mg./kg.

What does the source list for `CCCN1CC(CSC)CC2Cc3n[nH]cc3CC21` (mixture of isomers) [trans-dl-5-n-Propyl-7-methylmercaptomethyl-4,4a,5,6,7,8,8a,9-octahydro-1H and 2H-pyrazolo[3,4-g]quinoline dihydrochloride]?
% of Rats Exhibiting Turning Behavior ([1]; 1 mg./kg.): 100%; Average Number of Turns/rat ([1]; 1 mg./kg.): 81 turns/rat; % of Rats Exhibiting Turning Behavior ([1]; 100 mcg./kg.): 50%; Average Number of Turns/rat ([1]; 100 mcg./kg.): 67 turns/rat

For `CCCN1CC(CSC)CC2Cc3n[nH]cc3CC21` (mixture of isomers) [trans-dl-5-n-Propyl-7-methylmercaptomethyl-4,4a,5,6,7,8,8a,9-octahydro-1H and 2H-pyrazolo[3,4-g]quinoline], which “Percent Prolactin Inhibition” value ([2]; 0.5 mg/kg) is on record?
The value was 48%.

What about the “Percent Prolactin Inhibition” value ([2]; 5 mg/kg) of the same compound?
Its value is 73%.

Which “% of Rats Exhibiting Turning Behavior” value ([1]; 1 mg./kg.) does the source give for `C=CCN1CCC[C@H]2Cc3n[nH]cc3C[C@@H]21` (relative stereo) [Trans-dl-5-allyl-4,4a,5,6,7,8,8a,9-octahydro-2-H(and 1H)-pyrazolo[3,4-g]quinoline dihydrochloride] here?
Its value is 100%.

What about the “Average Number of Turns/rat” value ([1]; 1 mg./kg.) of the same compound?
The value was 165 turns/rat.

What about the “% of Rats Exhibiting Turning Behavior” value ([1]; 100 mcg./kg.) of the same compound?
Its value is 0%.

And the “Average Number of Turns/rat” value ([1]; 100 mcg./kg.)?
Its value is 0 turns/rat.

For `CN1CCC[C@H]2Cc3n[nH]cc3C[C@@H]21` (relative stereo) [trans-dl-5-methyl-4,4a,5,6,7,8,8a,9-octahydro-1H-(and 2H)-pyrazolo[3,4-g]quinoline dihydrochlorides], which “Percent Prolactin Inhibition” value ([2]; 0.5 mg/kg) is on record?
The value was 42%.

And the “Percent Prolactin Inhibition” value ([2]; 5 mg/kg)?
Its value is 84%.

With `CCCN1CCC[C@H]2Cc3[nH]ncc3C[C@@H]21` (relative stereo) [trans-dl-5-n-propyl-4,4a,5,6,7,8,8a,9-octahydro-1H and 2H-pyrazolo[3,4-g]quinoline dihydrochloride] as the compound, how does the LD50 ([3]; in vivo, ip, intraperitoneal) read?
The LD50 was 100 to 300 mg/kg.

What about the deaths ([3]; intraperitoneal dosages of 300 mg./kg.) of the same compound?
The deaths was “fatal”.

And the deaths ([3]; intraperitoneal dosages of 10-100 mg./kg.)?
The deaths was “no deaths”.
